Assay results reported in PMC4828684 (ACS Infectious Diseases, 2016).

What was measured:
[1] = target: T1, S. cerevisiae Acs1 (acetyl CoA synthetase) (Saccharomyces cerevisiae, UniProt Q01574); experiment: Km determination in hydroxamic acid enzyme assay; format: biochemical
T1 sequence (Q01574 1-713): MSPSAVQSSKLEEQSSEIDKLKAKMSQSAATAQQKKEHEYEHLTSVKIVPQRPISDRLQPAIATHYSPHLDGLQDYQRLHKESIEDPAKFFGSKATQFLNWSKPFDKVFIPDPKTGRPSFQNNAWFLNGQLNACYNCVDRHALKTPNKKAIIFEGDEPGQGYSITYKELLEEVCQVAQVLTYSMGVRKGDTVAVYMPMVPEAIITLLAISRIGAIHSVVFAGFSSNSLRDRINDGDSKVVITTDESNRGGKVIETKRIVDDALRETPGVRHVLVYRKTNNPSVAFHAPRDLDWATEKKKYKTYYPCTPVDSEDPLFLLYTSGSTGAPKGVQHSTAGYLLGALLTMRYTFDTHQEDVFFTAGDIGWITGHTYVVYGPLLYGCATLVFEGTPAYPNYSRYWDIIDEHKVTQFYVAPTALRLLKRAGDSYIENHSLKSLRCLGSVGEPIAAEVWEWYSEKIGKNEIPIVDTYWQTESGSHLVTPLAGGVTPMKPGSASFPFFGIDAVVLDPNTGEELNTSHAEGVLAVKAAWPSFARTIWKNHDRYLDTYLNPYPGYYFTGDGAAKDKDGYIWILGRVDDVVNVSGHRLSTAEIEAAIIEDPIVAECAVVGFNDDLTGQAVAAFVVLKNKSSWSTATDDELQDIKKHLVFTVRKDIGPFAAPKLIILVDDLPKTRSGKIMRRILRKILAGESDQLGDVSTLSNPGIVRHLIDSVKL

[2] = target: T2, human ACCS2 (ACSS2, acetyl CoA synthetase) (Homo sapiens, UniProt Q9NR19)
[3] = target: T2, human ACCS2 (ACSS2, acetyl CoA synthetase); experiment: biochemical
[4] = target: T1, S. cerevisiae Acs1 (acetyl CoA synthetase); experiment: hydroxylamine-coupled; format: biochemical

T2 sequence (Q9NR19 whole entry): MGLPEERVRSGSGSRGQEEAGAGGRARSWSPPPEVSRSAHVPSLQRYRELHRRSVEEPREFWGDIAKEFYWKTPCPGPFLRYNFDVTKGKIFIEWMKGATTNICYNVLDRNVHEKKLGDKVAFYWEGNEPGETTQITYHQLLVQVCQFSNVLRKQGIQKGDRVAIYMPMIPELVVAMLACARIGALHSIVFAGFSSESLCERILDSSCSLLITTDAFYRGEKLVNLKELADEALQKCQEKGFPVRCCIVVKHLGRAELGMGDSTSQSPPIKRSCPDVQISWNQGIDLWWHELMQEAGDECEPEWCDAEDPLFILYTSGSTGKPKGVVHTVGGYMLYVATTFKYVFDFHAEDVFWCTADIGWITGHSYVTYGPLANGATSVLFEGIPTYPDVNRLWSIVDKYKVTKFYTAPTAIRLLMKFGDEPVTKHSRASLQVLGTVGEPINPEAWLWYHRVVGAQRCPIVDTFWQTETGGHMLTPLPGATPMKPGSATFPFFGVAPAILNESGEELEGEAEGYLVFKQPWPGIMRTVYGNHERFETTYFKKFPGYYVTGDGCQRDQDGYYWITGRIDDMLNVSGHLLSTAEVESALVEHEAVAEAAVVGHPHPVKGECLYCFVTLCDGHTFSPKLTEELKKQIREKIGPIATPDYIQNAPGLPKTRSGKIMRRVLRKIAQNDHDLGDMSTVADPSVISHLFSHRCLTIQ

Km [1] [µM] | Km [2] [µM] | Structure (SMILES) | IC50 [3] [nM] | Ki [4] [nM]
900 to 1000 | 900 to 1000 | Nc1ncnc2c1ncn2[C@@H]1O[C@H](COP(=O)(O)OP(=O)(O)OP(=O)(O)O)[C@@H](O)[C@H]1O [ATP] | – | –
– | – | NCC(=O)Nc1ccc(-n2nc(C(F)(F)F)cc2-c2ccc3c(ccc4ccccc43)c2)cc1 [AR-12] | < 100000 | ~2700
